Measurements: patent publication US7758851B2, “Preservative systems and their use in cosmetic preparations” (Laboratorios Miret, S.A., priority 2001, dated 2010)

Columns and labels:
Aerobes = assay: Antimicrobial Effectiveness Testing (USP 24) of preserved cosmetic formulations, count of aerobes; type: cell-based; conditions: for Aerobes, Initial: 0 hours
Text: (§1) Procedure to Evaluate the Efficacv of the Preservative System
(§2) This assay consists on the contamination of the formulations to be protected with a mixed inoculum of 10^8 cfu/ml concentration, in each of the micro-organisms, and see the variation of the viable cells in time. This mixed inoculum is composed of the following micro-organisms:
(§3) The cosmetic composition which is the subject of the investigation is divided into containers with 50 g of product for each flask. Each container is inoculated with 0.5 ml of the inoculum (10^8 cfu/ml). The target concentration is 10^6 cfu/mL, approximately. All the containers are kept at a temperature between 20-25° C. and are protected against light.
(§4) The level of the microbial contamination is determined at 0 hours and after 7 days, 14 days and 28 days. The number of colonies is determined by dilution in buffer peptone with the appropriate neutraliser agent of the preservative. The culture media used for counting the micro-organisms were: Soya triptone agar (35-37° C., 48 hours) for the determination of bacteria; and Sabouraud agar with chloramphenicol for fungi and yeast (25° C., 3-5 days).
(§5) According to Antimicrobial Effectiveness Testing USP 24th Edition, 1999 (pp. 1809-1811), an antimicrobial preservative is considered to be effective in topically used products made with aqueous bases or vehicles, non-sterile nasal products and emulsions, including those applied to mucous membranes, if: • not less than 2,0 logarithm reduction from the initial calculated bacteria's count at 14 days is reached and no increase from the 14 days' count is detected after 28 days; and • no increase from the initial calculated count of yeast and moulds is observed.

Fungi = assay: Antimicrobial Effectiveness Testing (USP 24) of preserved cosmetic formulations, count of fungi; type: cell-based, Aspergillus niger ATCC 16404; conditions: for Fungi, Initial: 0 hours
Text: as §1, §2, §3, §4, §5

Yeast = assay: Antimicrobial Effectiveness Testing (USP 24) of preserved cosmetic formulations, count of yeast; type: cell-based, Candida albicans ATCC 10231; conditions: for Yeast, Initial: 0 hours
Text: as §1, §2, §3, §4, §5

[1] = Example 1, oil in water emulsion with non-ionic surfactant
[2] = Example 2, oil in water emulsion with ionic emulsifier
[3] = Example 3, water in oil emulsion with non-ionic emulsifier

Row | Compound | Aerobes, Initial (Aerobes; [1]) | Aerobes, 7 days (Aerobes; [1]) | Aerobes, 14 days (Aerobes; [1]) | Aerobes, Initial (Aerobes; [2]) | Aerobes, 7 days (Aerobes; [2]) | Aerobes, 14 days (Aerobes; [2]) | Aerobes, Initial (Aerobes; [3]) | Aerobes, 7 days (Aerobes; [3]) | Aerobes, 14 days (Aerobes; [3]) | Fungi, Initial (Fungi; [1]) | Fungi, 7 days (Fungi; [1]) | Fungi, 14 days (Fungi; [1]) | Fungi, Initial (Fungi; [2]) | Fungi, 7 days (Fungi; [2]) | Fungi, 14 days (Fungi; [2]) | Fungi, Initial (Fungi; [3]) | Fungi, 7 days (Fungi; [3]) | Fungi, 14 days (Fungi; [3]) | Yeast, Initial (Yeast; [1]) | Yeast, 7 days (Yeast; [1]) | other results
1 | CCCCCCCCCCCC(=O)NC(CCCNC(=N)N)C(=O)OCC.Cl (stereo not drawn) [compound 1] | 1.1 · 10^6 | 3.1 · 10^3 | 3.3 · 10^2 | 2.7 · 10^6 | 1.6 · 10^4 | 6.5 · 10^2 | 6.2 · 10^6 | 1.8 · 10^3 | <9.9 · 10^1 | 1.7 · 10^5 | 8.9 · 10^2 | <9.9 · 10^1 | 1.4 · 10^5 | 7.2 · 10^3 | 2.8 · 10^2 | 1.0 · 10^5 | <9.9 · 10^1 | <9.9 · 10^1 | 5.6 · 10^4 | 9.5 · 10^2 | Yeast, 14 days (Yeast; [1]): 4.0 · 10^2; Yeast, Initial (Yeast; [2]): 3.6 · 10^4; Yeast, 7 days (Yeast; [2]): 1.0 · 10^2; Yeast, 14 days (Yeast; [2]): 1.0 · 10^2; Yeast, Initial (Yeast; [3]): 7.0 · 10^4; Yeast, 7 days (Yeast; [3]): <9.9 · 10^1; Yeast, 14 days (Yeast; [3]): <9.9 · 10^1
2 | O=[N+]([O-])C(Br)(CO)CO [compound 2] | 1.2 · 10^6 | 2.1 · 10^3 | 7.9 · 10^2 | 4.5 · 10^6 | 2.1 · 10^4 | 3.8 · 10^3 | 3.3 · 10^6 | 5.7 · 10^3 | 2.8 · 10^3 | 1.5 · 10^5 | 1.2 · 10^3 | <9.9 · 10^1 | 1.5 · 10^5 | 8.5 · 10^3 | 1.1 · 10^2 | 3.5 · 10^4 | 8.5 · 10^3 | <9.9 · 10^1 | 3.4 · 10^4 | 1.7 · 10^2 | Yeast, 14 days (Yeast; [1]): <9.9 · 10^1; Yeast, Initial (Yeast; [2]): 2.9 · 10^4; Yeast, 7 days (Yeast; [2]): 8.9 · 10^2; Yeast, 14 days (Yeast; [2]): 4.0 · 10^2; Yeast, Initial (Yeast; [3]): 5.9 · 10^4; Yeast, 7 days (Yeast; [3]): 8.9 · 10^2; Yeast, 14 days (Yeast; [3]): 4.0 · 10^2
3 | CC1(C)C(=O)N(CO)C(=O)N1CO [compound 4] | 1.5 · 10^6 | 4.7 · 10^3 | 8.5 · 10^2 | 5.2 · 10^6 | 4.7 · 10^3 | 8.7 · 10^2 | 5.6 · 10^6 | 4.7 · 10^3 | 4.3 · 10^2 | 1.6 · 10^5 | 3.2 · 10^3 | <9.9 · 10^1 | 1.4 · 10^5 | 6.2 · 10^3 | 2.7 · 10^2 | 6.4 · 10^4 | 6.2 · 10^3 | <9.9 · 10^1 | 5.6 · 10^4 | 3.1 · 10^2 | Yeast, 14 days (Yeast; [1]): <9.9 · 10^1; Yeast, Initial (Yeast; [2]): 1.8 · 10^4; Yeast, 7 days (Yeast; [2]): 2.8 · 10^2; Yeast, 14 days (Yeast; [2]): <9.9 · 10^1; Yeast, Initial (Yeast; [3]): 4.8 · 10^4; Yeast, 7 days (Yeast; [3]): 2.8 · 10^2; Yeast, 14 days (Yeast; [3]): <9.9 · 10^1
4 | OCCOc1ccccc1 [compound 5] | 2.3 · 10^6 | 1.8 · 10^3 | 6.2 · 10^2 | 2.7 · 10^6 | 1.8 · 10^4 | 1.8 · 10^3 | 4.8 · 10^6 | 3.9 · 10^3 | 1.9 · 10^3 | 1.7 · 10^5 | 1.3 · 10^3 | <9.9 · 10^1 | 1.2 · 10^5 | 5.5 · 10^3 | 3.4 · 10^2 | 4.2 · 10^4 | 5.5 · 10^3 | <9.9 · 10^1 | 3.4 · 10^4 | 1.6 · 10^2 | Yeast, 14 days (Yeast; [1]): <9.9 · 10^1; Yeast, Initial (Yeast; [2]): 2.3 · 10^4; Yeast, 7 days (Yeast; [2]): 5.3 · 10^2; Yeast, 14 days (Yeast; [2]): <9.9 · 10^1; Yeast, Initial (Yeast; [3]): 5.3 · 10^4; Yeast, 7 days (Yeast; [3]): 5.3 · 10^2; Yeast, 14 days (Yeast; [3]): <9.9 · 10^1
5 | ClC=CC[N+]12CN3CN(CN(C3)C1)C2.[Cl-] [compound 8] | 4.8 · 10^6 | 7.2 · 10^3 | 5.3 · 10^2 | 4.6 · 10^6 | 7.2 · 10^3 | 9.8 · 10^2 | 4.2 · 10^6 | 2.7 · 10^3 | 9.4 · 10^2 | 1.8 · 10^5 | 1.3 · 10^3 | <9.9 · 10^1 | 1.8 · 10^5 | 5.3 · 10^3 | <9.9 · 10^1 | 3.8 · 10^4 | 1.3 · 10^3 | <9.9 · 10^1 | 3.4 · 10^4 | 1.6 · 10^2 | Yeast, 14 days (Yeast; [1]): <9.9 · 10^1; Yeast, Initial (Yeast; [2]): 1.9 · 10^4; Yeast, 7 days (Yeast; [2]): 5.9 · 10^2; Yeast, 14 days (Yeast; [2]): <9.9 · 10^1; Yeast, Initial (Yeast; [3]): 5.9 · 10^4; Yeast, 7 days (Yeast; [3]): 5.9 · 10^2; Yeast, 14 days (Yeast; [3]): <9.9 · 10^1
